Like-named read-outs stand apart in the source and are kept apart here.
Key:
human plasma kallikrein = human plasma kallikrein (Homo sapiens, UniProt P03952); assay: Kallikrein inhibition assay (FLINT) utilizing a quenched AMC peptide substrate Z-Gly-Pro-Arg-AMC; type: biochemical; conditions: kinetic (KIN) reads, read-out: Kallikrein KIN Inh IC50
Summary of the method: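 IC50 from a 4-parameter logistic fit of % inhibition from 11 concentrations (3-fold, top 1 μM, 2% DMSO). Compound pre-incubated 30 min with 2 nM enzyme in Tris pH 7.5, NaCl, CaCl2, BSA, CHAPS, then 50 μM AMC peptide substrate added. Fluorescence (340/440 nm) followed every 5 min for 30 min at room temperature.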

Factor XIa = Factor XIa (Homo sapiens, UniProt P03951); assay: Factor XIa inhibition assay (FLINT) utilizing a fluorophore-quencher pair peptide substrate 5Fam-[…]-K5Tamra; type: biochemical; conditions: kinetic (KIN) reads, read-out: FXIa KIN Inh IC50
Factor XIa, sequence (P03951 388-625 limits assumed): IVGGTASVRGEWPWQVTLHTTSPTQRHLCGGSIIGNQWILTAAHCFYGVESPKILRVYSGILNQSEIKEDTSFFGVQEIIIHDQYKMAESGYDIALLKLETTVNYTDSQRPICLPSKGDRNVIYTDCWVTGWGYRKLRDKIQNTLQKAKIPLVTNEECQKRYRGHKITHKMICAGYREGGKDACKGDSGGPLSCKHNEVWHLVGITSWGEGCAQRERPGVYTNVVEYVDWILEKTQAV
Factor XIa, sequence (P03951 19-387 partner limits assumed): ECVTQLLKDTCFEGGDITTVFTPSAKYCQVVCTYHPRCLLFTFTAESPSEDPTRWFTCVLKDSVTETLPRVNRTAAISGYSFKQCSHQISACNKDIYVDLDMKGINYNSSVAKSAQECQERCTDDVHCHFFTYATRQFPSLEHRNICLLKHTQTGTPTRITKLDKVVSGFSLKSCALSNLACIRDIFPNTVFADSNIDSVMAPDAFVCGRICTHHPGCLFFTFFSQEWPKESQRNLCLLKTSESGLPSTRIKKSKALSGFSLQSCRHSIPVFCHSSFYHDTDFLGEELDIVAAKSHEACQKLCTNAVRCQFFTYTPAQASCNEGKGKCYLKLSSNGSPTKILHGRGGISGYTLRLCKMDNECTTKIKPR
Summary of the method: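 Compounds were tested as 11-point 3-fold dilutions from 100 nM (2% DMSO). They were preincubated 30 min with FXIa in 50 mM Tris pH 7.5, 5 mM CaCl2, then 15 μM fluorophore-quencher peptide was added. Cleavage was followed at 485/520 nm over 30 min, and IC50 was derived by 4-parameter logistic fit.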

human plasma kallikrein, sequence (P03952 391-638 limits assumed): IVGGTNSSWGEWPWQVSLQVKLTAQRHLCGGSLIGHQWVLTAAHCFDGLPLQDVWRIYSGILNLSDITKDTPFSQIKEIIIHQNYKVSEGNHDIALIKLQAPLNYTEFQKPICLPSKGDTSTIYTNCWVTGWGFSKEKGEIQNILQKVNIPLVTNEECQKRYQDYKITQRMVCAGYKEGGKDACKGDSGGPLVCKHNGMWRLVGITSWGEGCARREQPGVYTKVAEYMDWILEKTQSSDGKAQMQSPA
human plasma kallikrein, sequence (P03952 20-390 partner limits assumed): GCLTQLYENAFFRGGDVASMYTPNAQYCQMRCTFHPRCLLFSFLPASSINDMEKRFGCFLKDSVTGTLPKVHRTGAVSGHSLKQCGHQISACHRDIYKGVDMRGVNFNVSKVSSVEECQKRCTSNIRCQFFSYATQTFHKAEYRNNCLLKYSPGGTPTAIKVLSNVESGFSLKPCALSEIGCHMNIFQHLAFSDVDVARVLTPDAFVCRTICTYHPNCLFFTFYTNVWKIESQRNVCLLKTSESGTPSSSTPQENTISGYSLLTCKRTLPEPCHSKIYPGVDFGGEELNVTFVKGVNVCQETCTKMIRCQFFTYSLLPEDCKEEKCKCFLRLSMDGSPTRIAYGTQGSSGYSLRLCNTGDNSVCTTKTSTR

IC50 (human plasma kallikrein; values in nM)	IC50 (Factor XIa; values in nM)	IC50 (human plasma kallikrein; unit μM)	IC50 (Factor XIa; unit μM)	Compound
54.8 nM	22.1 nM			O=c1cc(-c2c(-n3cnnn3)ccc(Cl)c2F)nc2n1[C@H](c1nc(-c3ccnc(OCC(O)C(F)(F)F)c3F)c[nH]1)CC21CC1 (single isomer, unassigned) [Example 73, (S)-2′-(3-chloro-2-fluoro-6-(1H-tetrazol-1-yl)phenyl)-6′-(4-(3-fluoro-2-((S*)-3,3,3-trifluoro-2-hydroxypropoxy)pyridin-4-yl)-1H-imidazol-2-yl)-6′,7′-dihydro-4′H-spiro[cyclopropane-1,8′-pyrrolo[1,2-a]pyrimidin]-4′-one]
~21.4 nM	6.9 nM			C[C@H]1C[C@@H](c2ncc(-c3cc4c(cn3)NC(=O)CC4)[nH]2)n2c1cc(-c1c(-n3cnnn3)ccc(Cl)c1F)cc2=O (single isomer, unassigned) [Example 9, 6-(2-((1*S,3*S)-7-(3-Chloro-2-fluoro-6-(1H-tetrazol-1-yl)phenyl)-1-methyl-5-oxo-1,2,3,5-tetrahydroindolizin-3-yl)-1H-imidazol-5-yl)-3,4-dihydro-1,7-naphthyridin-2(1H)-one]
819 nM	> 100 nM			C[C@H]1C[C@@H](c2ncc(-c3ncc(N)nc3C(F)F)[nH]2)n2c1nc(-c1c(-n3cnnn3)ccc(Cl)c1F)cc2=O (relative stereo) [Example 86, (6*S,8*S)-6-(5-(5-Amino-3-(difluoromethyl)pyrazin-2-yl)-1H-imidazol-2-yl)-2-(3-chloro-2-fluoro-6-(1H-tetrazol-1-yl)phenyl)-8-methyl-7,8-dihydropyrrolo[1,2-a]pyrimidin-4(6H)-one]
49.2 nM	0.8 nM			Cc1nc(N)ccc1-c1cnc([C@@H]2C[C@H](C)c3cc(-c4c(-n5cnnn5)ccc(Cl)c4F)cc(=O)n32)[nH]1 (relative stereo) [Example 51, (1*S,3*S)-3-(5-(6-Amino-2-methylpyridin-3-yl)-1H-imidazol-2-yl)-7-(3-chloro-2-fluoro-6-(1H-tetrazol-1-yl)phenyl)-1-methyl-2,3-dihydroindolizin-5(1H)-one]
		> 10000 nM	> 10000 nM	C[C@@H]1C[C@H](c2ncc(-c3ccnn3C)[nH]2)n2c1nc(-c1c(-n3cnnn3)ccc(Cl)c1F)cc2=O (stereo in doubt) [Example 143, (6R*,8R*)-2-(3-Chloro-2-fluoro-6-(1H-tetrazol-1-yl)phenyl)-8-methyl-6-(5-(1-methyl-1H-pyrazol-5-yl)-1H-imidazol-2-yl)-7,8-dihydropyrrolo[1,2-a]pyrimidin-4(6H)-one]
		> 10000 nM	> 10000 nM	C[C@@H]1C[C@@H](c2ncc(-c3ccnc(F)c3)[nH]2)n2c1cc(-c1c(-n3cnnn3)ccc(Cl)c1F)cc2=O (relative stereo) [Example 45, (1*R,3*S)-7-(3-Chloro-2-fluoro-6-(1H-tetrazol-1-yl)phenyl)-3-(5-(2-fluoropyridin-4-yl)-1H-imidazol-2-yl)-1-methyl-2,3-dihydroindolizin-5(1H)-one]
38 nM	6.9 nM			O=c1cc(-c2c(-n3cnnn3)ccc(Cl)c2F)cc2n1[C@H](c1ncc(-c3ccnc(CO)c3F)[nH]1)CC21CC1 [Example 7, (S)-7′-(3-Chloro-2-fluoro-6-(1H-tetrazol-1-yl)phenyl)-3′-(5-(3-fluoro-2-(hydroxymethyl)pyridin-4-yl)-1H-imidazol-2-yl)-2′,3′-dihydro-5′H-spiro[cyclopropane-1,1′-indolizin]-5′-one]
	286 nM	6400 nM		C[C@H]1CC(c2nc(F)c(-c3ccc(N)nc3)[nH]2)n2c1cc(-c1c(-n3cnnn3)ccc(Cl)c1F)cc2=O (stereo in doubt) [Example 40, (1*S,3*S)-3-(5-(6-Aminopyridin-3-yl)-4-fluoro-1H-imidazol-2-yl)-7-(3-chloro-2-fluoro-6-(1H-tetrazol-1-yl)phenyl)-1-methyl-2,3-dihydroindolizin-5(1H)-one]
		> 10000 nM	2700 nM	C[C@@H]1C[C@H](c2ncc(-c3cnnn3C)[nH]2)n2c1nc(-c1c(-n3cnnn3)ccc(Cl)c1F)cc2=O (relative stereo) [Example 135, (6*R,8*R)-2-(3-Chloro-2-fluoro-6-(1H-tetrazol-1-yl)phenyl)-8-methyl-6-(5-(1-methyl-1H-1,2,3-triazol-5-yl)-1H-imidazol-2-yl)-7,8-dihydropyrrolo[1,2-a]pyrimidin-4(6H)-one]
185 nM	47.8 nM			C[C@@H]1CC(c2ncc(-c3cnc(N)c(F)c3)[nH]2)n2c1cc(-c1c(-n3cnnn3)ccc(Cl)c1F)cc2=O (stereo in doubt) [Example 60, (1*R)-3-(5-(6-Amino-5-fluoropyridin-3-yl)-1H-imidazol-2-yl)-7-(3-chloro-2-fluoro-6-(1H-tetrazol-1-yl)phenyl)-1-methyl-2,3-dihydroindolizin-5(1H)-one]
108 nM	12.4 nM			C[C@@H]1C[C@H](c2ncc(-c3ccnc(F)c3)[nH]2)n2c1cc(-c1c(-n3cnnn3)ccc(Cl)c1F)cc2=O (stereo in doubt) [Example 43, (1*R,3*R)-7-(3-Chloro-2-fluoro-6-(1H-tetrazol-1-yl)phenyl)-3-(5-(2-fluoropyridin-4-yl)-1H-imidazol-2-yl)-1-methyl-2,3-dihydroindolizin-5(1H)-one]
747 nM	283 nM			Cc1nc(N)c(F)cc1-c1cnc([C@H]2C[C@@H](C)c3nc(-c4c(-n5cnnn5)ccc(Cl)c4F)cc(=O)n32)[nH]1 (stereo in doubt) [Example 128, (6*R,8*R)-6-(5-(6-Amino-5-fluoro-2-methylpyridin-3-yl)-1H-imidazol-2-yl)-2-(3-chloro-2-fluoro-6-(1H-tetrazol-1-yl)phenyl)-8-methyl-7,8-dihydropyrrolo[1,2-a]pyrimidin-4(6H)-one]
	95 nM	5600 nM		C[C@@H]1C[C@@H](c2ncc(-c3ccc(NC(=O)C4CC4)nc3)[nH]2)n2c1nc(-c1c(-n3cnnn3)ccc(Cl)c1F)cc2=O (stereo in doubt) [Example 122, N-(5-(2-((6*S,8*R)-2-(3-Chloro-2-fluoro-6-(1H-tetrazol-1-yl)phenyl)-8-methyl-4-oxo-4,6,7,8-tetrahydropyrrolo[1,2-a]pyrimidin-6-yl)-1H-imidazol-5-yl)pyridin-2-yl)cyclopropanecarboxamide]
105 nM	9.1 nM			Nc1ncc(-c2cnc([C@@H]3CC4(CC4)c4cc(-c5c(-n6cnnn6)ccc(Cl)c5F)cc(=O)n43)[nH]2)s1 [Example 18, (S)-3′-(5-(2-Aminothiazol-5-yl)-1H-imidazol-2-yl)-7′-(3-chloro-2-fluoro-6-(1H-tetrazol-1-yl)phenyl)-2′,3′-dihydro-5′H-spiro[cyclopropane-1,1′-indolizin]-5′-one]
	311 nM	6400 nM		C[C@H]1C[C@@H](c2ncc(-c3cnnn3C)[nH]2)n2c1cc(-c1c(-n3cnnn3)ccc(Cl)c1F)cc2=O [Example 28, (1S,3S)-7-(3-Chloro-2-fluoro-6-(1H-tetrazol-1-yl)phenyl)-1-methyl-3-(5-(1-methyl-1H-1,2,3-triazol-5-yl)-1H-Imidazol-2-yl)-2,3-dihydroindolizin-5(1H)-one]
115 nM	113 nM			COc1nccc(-c2cnc([C@H]3C[C@H](C)c4nc(-c5c(-n6cnnn6)ccc(Cl)c5F)cc(=O)n43)[nH]2)n1 (relative stereo) [Example 104, (6*R,8*S)-2-(3-Chloro-2-fluoro-6-(1H-tetrazol-1-yl)phenyl)-6-(5-(2-methoxypyrimidin-4-yl)-1H-imidazol-2-yl)-8-methyl-7,8-dihydropyrrolo[1,2-a]pyrimidin-4(6H)-one]
		> 10000 nM	1500 nM	C[C@H]1C[C@@H](c2ncc(-c3ccc(N)nc3F)[nH]2)n2c1cc(-c1cc(Cl)ccc1-n1cnnn1)cc2=O (single isomer, unassigned) [Example 36]
146 nM	22.6 nM			C[C@@H]1C[C@@H](c2ncc(-c3cn[nH]c3)[nH]2)n2c1nc(-c1c(-n3cnnn3)ccc(Cl)c1F)cc2=O (stereo in doubt) [Example 111, (6*S,8*R)-6-(5-(1H-Pyrazol-4-yl)-1H-imidazol-2-yl)-2-(3-chloro-2-fluoro-6-(1H-tetrazol-1-yl)phenyl)-8-methyl-7,8-dihydropyrrolo[1,2-a]pyrimidin-4(6H)-one]
340 nM	64.4 nM			C[C@H]1C[C@@H](c2ncc(-c3cnc(F)c(N)c3)[nH]2)n2c1cc(-c1c(-n3cnnn3)ccc(Cl)c1F)cc2=O [Example 21, (1S,3S)-3-(5-(5-Amino-6-fluoropyridin-3-yl)-1H-imidazol-2-yl)-7-(3-chloro-2-fluoro-6-(1H-tetrazol-1-yl)phenyl)-1-methyl-2,3-dihydroindolizin-5(1H)-one]
	321 nM	1300 nM		C[C@@H]1C[C@@H](c2ncc(-c3ccc4c(=O)cc[nH]c4c3)[nH]2)n2c1nc(-c1c(-n3cnnn3)ccc(Cl)c1F)cc2=O (relative stereo) [Example 101, 7-(2-((6S,8R)-2-(3-Chloro-2-fluoro-6-(1H-tetrazol-1-yl)phenyl)-8-methyl-4-oxo-4,6,7,8-tetrahydropyrrolo[1,2-a]pyrimidin-6-yl)-1H-imidazol-5-yl)quinolin-4(1H)-one]
16 nM	1.4 nM			Cc1nc(N)ccc1-c1cnc([C@@H]2C[C@@H](C)c3cc(-c4c(-n5cnnn5)ccc(Cl)c4F)cc(=O)n32)[nH]1 [Example 50, (1R,3S)-3-(5-(6-Amino-2-methylpyridin-3-yl)-1H-imidazol-2-yl)-7-(3-chloro-2-fluoro-6-(1H-tetrazol-1-yl)phenyl)-1-methyl-2,3-dihydroindolizin-5(1H)-one]
